From patent publication US12241114B2, “Biophysical platform for drug development based on energy landscape” (BRANDEIS UNIVERSITY, priority 2014, dated 2025)
Residue numbers refer to the chain shown, from its start.

How the values were obtained:
[1] = target: T1, unphosphorylated Aurora A (Homo sapiens, UniProt O14965); assay: Stopped-flow tryptophan fluorescence binding and dissociation kinetics on unphosphorylated Aurora A
T1 sequence (O14965 122-403): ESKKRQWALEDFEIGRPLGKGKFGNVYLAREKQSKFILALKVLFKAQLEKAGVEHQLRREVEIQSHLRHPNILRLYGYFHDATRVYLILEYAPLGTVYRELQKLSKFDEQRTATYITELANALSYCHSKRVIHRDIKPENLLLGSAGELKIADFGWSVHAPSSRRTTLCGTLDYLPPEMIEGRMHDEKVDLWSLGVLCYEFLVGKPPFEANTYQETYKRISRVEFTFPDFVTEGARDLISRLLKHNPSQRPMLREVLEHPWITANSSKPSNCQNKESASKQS
Description: The stopped-flow instrument is a SX20 series from AppliedPhotophysics.
In the following equations, K1, K2 and K3 equal to:
[formula] Error bars calculations of the dissociation constant parameter (calculated from the kinetics) are calculated using classical error propagation equations. Aurora A Wild-Type Binding to MantATP

[2] = target: T2, Aurora A wild-type (Homo sapiens, UniProt O14965); assay: FRET stopped-flow kinetics of MantATP binding to Aurora A; conditions: 10° C., double exponential
T2 sequence (O14965 122-403): T1 sequence (O14965 122-403)
Description: FRET using intrinsic tryptophan fluorescence is used to monitor MantATP binding kinetics to Aurora A at 10° C. […] In the release of MantATP experiment or koff, 10 μM/10 μM Aurora A/MantATP complex were diluted with buffer (ratio 1:10). A significant decrease in the fluorescence intensity of Aurora A (excitation at 295 nm, emission cut-off at 395 nm) can be seen due to the MantATP release.

[3] = target: T3, Y199H modern Aurora A (Homo sapiens, UniProt O14965, T288V/Y199H); assay: Isothermal titration calorimetry of TPX2 binding to Y199H Aurora A; conditions: Y199H versus modern Aurora A
T3 sequence (O14965 122-403 Y199H/T288V): T1 sequence (O14965 122-403) with Y78H, T167V
Description: FIGS. 33A-33C are plots and schematics showing Y199 is an Aurora A hotspot important in TPX2 binding.
All titrations were carried out using Nano ITC (TA instruments) and analyzed via the NanoAnalyze software using the independent fit model. Injectant was added in […] volume, every 180 s, with a constant stirring speed at 350 rpm and at 25° C. Prior to ITC titration, both protein and peptide were dialyzed/resuspended in 20 mM TrisHCl, 200 mM NaCl, 10% (v/v) glycerol, 1 mM TCEP, pH 7.50.

## Cc1ccc(NC(=O)c2ccc(CN3CCN(C)CC3)cc2)cc1Nc1nccc(-c2cccnc2)n1 [Gleevec]
[1]; 10° C., after 10-fold dilution of the complex
  apparent rate constant of dissociation: 50 s⁻¹
[1]; Gleevec versus Danusertib
  observed off rate, times faster than the Danusertib off rate: 10^6-10^7

## MantATP
[2]
  plateau of second observed rate constant: around 20 s^−1

## CO[C@@H](C(=O)N1Cc2n[nH]c(NC(=O)c3ccc(N4CCN(C)CC4)cc3)c2C1)c1ccccc1 [Danusertib]
[1]
  tighter binding from the conformational change after drug binding: three orders of magnitude
  weakening of overall affinity by the DFG-in/-out equilibrium: 20%
[1]; 25° C., after 30-fold dilution of the complex
  dissociation kinetics: slow, taking hours to be released
[1]; 25° C., global fit
  Keq of the induced fit step: 5×10^−4

## modern TPX2: modern-day TPX2 protein, allosteric activator of Aurora A, residues 1-45 (MSQVKSSYSYDAPSDFINFSSLDDEGDTQNIDSWFEEKANLENKL; UniProt Q9ULW0 1-45, looked up, fragment)
[3]
  weakening of binding by Y199H mutation of Aurora A: approximately 20 fold
